Assay results as given in ChEMBL document CHEMBL1201862, “PubChem BioAssay data set” (2004).
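Growth conditions: 96-well plates. Treatment: test compound, 48 hours, 5 concentrations. Analysis: linear interpolation between bracketing concentrations; unreached endpoints set to highest concentration. The concentration for 50% growth inhibition is given as GI50.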 The source made the active and inactive calls. Cut-off read from the data, not from the text of the source: active = GI50 up to about 1.1 µM and inactive = higher.

Experiments:
Experiment in all cases: NCI tumour cell line growth inhibition, 48 h
[1] = system: ACHN
[2] = system: A498
[3] = system: 786-0
[4] = system: NCI-H226
[5] = system: CCRF-CEM
[6] = system: RXF 393
[7] = system: SF-295
[8] = system: HL-60
[9] = system: OVCAR-3
[10] = system: HCT-116
[11] = system: MOLT-4
[12] = system: HCT-15
[13] = system: OVCAR-8
[14] = system: SN12C
[15] = system: HOP-62
[16] = system: SF-268
[17] = system: UACC-62
[18] = system: SK-MEL-28
[19] = system: U-251

Compound | GI50 [1] | GI50 [2] | GI50 [3] | GI50 [4] | GI50 [5] | GI50 [6] | GI50 [7] | GI50 [8] | GI50 [9] | GI50 [10] | GI50 [11] | GI50 [12] | GI50 [13] | GI50 [14] | GI50 [15] | GI50 [16] | GI50 [17] | GI50 [18] | GI50 [19]
CCC(C)N1CN(c2ccccc2)C2(CCN(CCCC3(c4ccc(F)cc4)OCCO3)CC2)C1=O (stereo not drawn) | 6.61 µM (inactive) | 22.2 µM (inactive) | 5.53 µM (inactive) | 16.7 µM (inactive) | 3.6 µM (inactive) | 13 µM (inactive) | 5.57 µM (inactive) | 6.47 µM (inactive) | 14.7 µM (inactive) | 11.9 µM (inactive) | 2.61 µM (inactive) | 4.75 µM | 7.64 µM (inactive) | 7.24 µM (inactive) | 13.2 µM (inactive) | 17.7 µM (inactive) | 23.3 µM (inactive) | 17.6 µM (inactive) | 5.86 µM (inactive)
CC1(C)C2CCC1C(=O)C(C=O)C2 (stereo not drawn) | > 100 µM (inactive) | > 100 µM (inactive) | > 100 µM (inactive) | > 100 µM (inactive) | > 100 µM (inactive) | > 100 µM (inactive) | > 100 µM (inactive) | 57.3 µM (inactive) | > 100 µM (inactive) | > 100 µM (inactive) | > 100 µM (inactive) | 49.5 µM | > 100 µM (inactive) | > 100 µM (inactive) | > 100 µM (inactive) | > 100 µM (inactive) | > 100 µM (inactive) | > 100 µM (inactive) | > 100 µM (inactive)
Cc1c(C(=O)OCc2ccccc2)[n+]([O-])c2cc(F)c(F)cc2[n+]1[O-] | 1.94 µM (inactive) | 1.42 µM (inactive) | 4.58 µM (inactive) | 2.7 µM (inactive) | 0.944 µM (active) | 2.38 µM (inactive) | 2.16 µM (inactive) | 1.06 µM (active) | 1.01 µM (active) | 1.63 µM (inactive) | 1.96 µM (inactive) | 0.583 µM | 2.07 µM (inactive) | 1.94 µM (inactive) | 4.67 µM (inactive) | 1.25 µM (inactive) | 2.11 µM (inactive) | 2.06 µM (inactive) | 2.3 µM (inactive)
CC(C)CSCC1OC(n2cnc3c(N)nccc32)C(O)C1O (stereo not drawn) | > 100 µM (inactive) | > 100 µM (inactive) | > 100 µM (inactive) | > 57.1 µM (inactive) | > 100 µM (inactive) | > 52 µM (inactive) | > 100 µM (inactive) | > 100 µM (inactive) | > 100 µM (inactive) | > 100 µM (inactive) | > 87.5 µM (inactive) | > 100 µM | > 100 µM (inactive) | > 100 µM (inactive) | > 100 µM (inactive) | > 100 µM (inactive) | > 100 µM (inactive) | > 100 µM (inactive) | > 100 µM (inactive)
O=CC12c3ccccc3C(c3ccccc31)C1C(=O)NC(=O)C12 (stereo not drawn) | > 100 µM (inactive) | 10.8 µM (inactive) | > 100 µM (inactive) | > 100 µM (inactive) | 41.7 µM (inactive) | 76.2 µM (inactive) | > 100 µM (inactive) | > 100 µM (inactive) | > 100 µM (inactive) | 45.9 µM (inactive) | 97.3 µM (inactive) | > 100 µM | > 100 µM (inactive) | > 100 µM (inactive) | 56 µM (inactive) | > 100 µM (inactive) | > 100 µM (inactive) | > 100 µM (inactive) | > 100 µM (inactive)
CC[C@@]12CCCN3CC[C@]4(c5cccc(OC)c5N(C(C)=O)[C@@H]4CC1)[C@H]32 [ASPIDOSPERMINE] | > 100 µM (inactive) | 42.7 µM (inactive) | 80.5 µM (inactive) | 93.8 µM (inactive) | 26.2 µM (inactive) | 60.4 µM (inactive) | 46.6 µM (inactive) | 20.7 µM (inactive) | > 100 µM (inactive) | 44.9 µM (inactive) | 25.3 µM (inactive) | 79.3 µM | > 100 µM (inactive) | > 100 µM (inactive) | > 100 µM (inactive) | > 100 µM (inactive) | > 100 µM (inactive) | 80.2 µM (inactive) | 94 µM (inactive)
O=C(O)CNC(=O)c1ccccc1O [SALICYLURIC ACID] | > 100 µM (inactive) | > 100 µM (inactive) | > 100 µM (inactive) | > 100 µM (inactive) | > 100 µM (inactive) | > 100 µM (inactive) | > 100 µM (inactive) | > 100 µM (inactive) | > 100 µM (inactive) | > 100 µM (inactive) | > 100 µM (inactive) | > 100 µM | > 100 µM (inactive) | > 100 µM (inactive) | > 100 µM (inactive) | > 100 µM (inactive) | > 100 µM (inactive) | > 100 µM (inactive) | > 100 µM (inactive)
